Source: patent publication US20070208166A1, “Tao Kinase Modulators And Method Of Use” (Exelixis, Inc., priority 2003, published 2007)

Experiments:
Type in all cases: biochemical
[1] = target: T1, KIAA 1361 (baculovirus expressed human KIAA 1361 kinase domain 2-322) (Homo sapiens, UniProt Q7L7X3); test: KIAA 1361 Luciferase-Coupled Chemiluminescent Kinase assay (LCCA); conditions: 2 μM ATP, 10 μM MBP, 12 nM KIAA 1361, 2 hours; read-out: KIAA1361 inhibition IC50
T1 construct: human KIAA 1361 kinase domain 2-322; made in house
T1 sequence (Q7L7X3 2-322): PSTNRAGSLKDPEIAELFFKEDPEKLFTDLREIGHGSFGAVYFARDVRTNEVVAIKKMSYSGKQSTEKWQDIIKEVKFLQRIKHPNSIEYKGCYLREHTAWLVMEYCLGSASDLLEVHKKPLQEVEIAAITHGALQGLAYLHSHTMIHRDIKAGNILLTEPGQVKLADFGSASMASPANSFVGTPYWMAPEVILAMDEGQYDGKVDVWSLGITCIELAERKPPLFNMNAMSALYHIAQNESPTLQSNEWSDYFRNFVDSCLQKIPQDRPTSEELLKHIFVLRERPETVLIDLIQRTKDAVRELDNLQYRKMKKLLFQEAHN
Description: (§1) Kinase activity and compound inhibition are investigated using one or more of the three assay formats described below. The ATP concentrations for each assay are selected to be close to the Michaelis-Menten constant (KM) for each individual kinase. Dose-response experiments are performed at 10 different inhibitor concentrations in a 384-well plate format. The data are fitted to four-parameter equation (2) below; where Y is the observed signal, X is the inhibitor concentration, Min is the background signal in the absence of enzyme (0% enzyme activity), Max is the signal in the absence of inhibitor (100% enzyme activity), IC50 is the inhibitor concentration at 50% enzyme inhibition and H represents the empirical Hill's slope to measure the cooperativity. Typically H is close to unity. Y=Min+(Max−Min)/(1+(X/IC50)ˆH) Equation (2) KIAA 1361 Assay: […]
(§2) KIAA 1361 biochemical activity was assessed using a Luciferase-Coupled Chemiluminescent Kinase assay (LCCA) format. Kinase activity was measured as the percent ATP remaining following the kinase reaction. Remaining ATP was detected by luciferase-luciferin-coupled chemiluminescence. Specifically, the reaction was initiated by mixing test compounds, 2 μM ATP, 10 μM MBP and 12 nM KIAA 1361 (baculovirus expressed human KIAA 1361 kinase domain 2-322) in a 20 uL assay buffer (20 mM Tris-HCL pH7.5, 10 mM MgCl2, 0.02% Triton X-100, 100 mM DTT, 2 mM MnCl2). The mixture is incubated at ambient temperature for 2 hours after which 20 uL luciferase-luciferin mix is added and the chemiluminescent signal read using a Wallac Victor^2 reader. The luciferase-luciferin mix consists of 50 mM HEPES, pH 7.8, 8.5 ug/mL oxalic acid (pH 7.8), 5 (or 50) mM DTT, 0.4% Triton X-100, 0.25 mg/mL coenzyme A, 63 uM AMP, 28 ug/mL luciferin and 40,000 units of light/mL luciferase.

JIK = target: T2, JIK (Homo sapiens, UniProt Q9H2K8); test: JIK Luciferase-Coupled Chemiluminescent Kinase assay (LCCA); conditions: 2 μM ATP, 10 μM MBP, 6 nM JIK, 2 hours; read-out: JIK inhibition IC50
T2 construct: 6 nM JIK (baculovirus expressed human KIAA 1361 kinase domain2-318); made in house
T2 sequence (Q9H2K8 2-318): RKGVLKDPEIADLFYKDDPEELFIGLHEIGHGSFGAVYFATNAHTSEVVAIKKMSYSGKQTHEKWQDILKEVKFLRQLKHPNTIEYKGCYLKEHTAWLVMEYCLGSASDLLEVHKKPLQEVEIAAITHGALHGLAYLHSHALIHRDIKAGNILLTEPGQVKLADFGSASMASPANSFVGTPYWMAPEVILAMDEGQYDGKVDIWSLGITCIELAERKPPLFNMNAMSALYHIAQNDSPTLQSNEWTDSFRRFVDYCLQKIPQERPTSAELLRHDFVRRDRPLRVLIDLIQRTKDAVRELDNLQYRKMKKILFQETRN
Description: as §1
as §2, with “JIK biochemical” for “KIAA 1361 biochemical”, “and 6” for “and 12”, “nM JIK” for “nM KIAA 1361”, “kinase domain2-318)” for “kinase domain 2-322)”

TAO = target: T3, TAO (Homo sapiens, UniProt Q9UL54); test: TAO Luciferase-Coupled Chemiluminescent Kinase assay (LCCA); conditions: 2 μM ATP, 10 μM MBP, 12 nM TAO, 2 hours; read-out: TAO inhibition IC50
T3 sequence (Q9UL54 1-1235): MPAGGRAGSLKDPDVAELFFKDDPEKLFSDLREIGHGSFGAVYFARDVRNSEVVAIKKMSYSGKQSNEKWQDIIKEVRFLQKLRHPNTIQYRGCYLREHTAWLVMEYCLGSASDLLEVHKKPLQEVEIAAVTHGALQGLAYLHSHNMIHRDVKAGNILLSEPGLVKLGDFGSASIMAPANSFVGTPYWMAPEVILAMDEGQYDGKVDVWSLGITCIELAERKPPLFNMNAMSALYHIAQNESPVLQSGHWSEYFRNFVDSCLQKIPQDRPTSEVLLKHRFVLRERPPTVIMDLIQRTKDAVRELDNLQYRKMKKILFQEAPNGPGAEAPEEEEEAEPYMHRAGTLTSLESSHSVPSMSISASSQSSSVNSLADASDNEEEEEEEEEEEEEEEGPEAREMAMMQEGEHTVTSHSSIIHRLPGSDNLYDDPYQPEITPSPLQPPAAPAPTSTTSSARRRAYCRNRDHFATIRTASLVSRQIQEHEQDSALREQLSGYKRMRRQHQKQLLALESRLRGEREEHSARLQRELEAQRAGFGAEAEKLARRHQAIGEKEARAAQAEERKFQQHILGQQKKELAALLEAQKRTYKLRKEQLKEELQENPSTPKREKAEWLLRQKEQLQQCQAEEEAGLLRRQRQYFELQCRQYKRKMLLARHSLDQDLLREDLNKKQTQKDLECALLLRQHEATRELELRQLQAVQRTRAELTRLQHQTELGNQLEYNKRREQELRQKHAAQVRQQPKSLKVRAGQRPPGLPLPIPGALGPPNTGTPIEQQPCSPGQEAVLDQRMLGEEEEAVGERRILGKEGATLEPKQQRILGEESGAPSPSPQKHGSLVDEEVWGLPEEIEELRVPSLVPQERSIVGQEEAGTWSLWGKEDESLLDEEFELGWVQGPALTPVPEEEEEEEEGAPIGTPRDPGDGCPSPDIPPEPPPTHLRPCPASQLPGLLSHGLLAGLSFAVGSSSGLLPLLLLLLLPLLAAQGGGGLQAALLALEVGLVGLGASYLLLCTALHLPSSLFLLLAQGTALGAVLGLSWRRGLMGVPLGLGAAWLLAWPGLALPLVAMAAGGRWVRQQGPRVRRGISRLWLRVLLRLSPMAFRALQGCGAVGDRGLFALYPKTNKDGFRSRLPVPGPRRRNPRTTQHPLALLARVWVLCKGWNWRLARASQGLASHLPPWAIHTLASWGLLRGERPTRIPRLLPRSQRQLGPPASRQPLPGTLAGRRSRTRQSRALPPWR
Description: as §1
as §2, with “TAO biochemical” for “KIAA 1361 biochemical”, “nM TAO” for “nM KIAA 1361”, “mM […],” for “mM HEPES,”, “[…]” for “0.25 mg/mL”

SMILES	IC50 [1] [nM]	IC50 (JIK) [nM]	IC50 (TAO) [nM]
CCc1ccc(-c2ccc(C(=O)NCC(=O)NCc3ccccc3C)cc2)cc1 [Entry 74, 4′-ethyl-N-(2-{[(2-methylphenyl)methyl]amino}-2-oxoethyl)biphenyl-4-carboxamide]	50 to 500	50 to 500	50 to 500
COc1cccc(OCC(=O)NCC(=O)NC2CCCc3ccccc32)c1 (stereo not drawn) [Entry 28, N˜2˜-({[3-(methyloxy)phenyl]oxy}acetyl)-N-(1,2,3,4-tetrahydronaphthalen-1-yl)glycinamide]	500 to 5000	50 to 500	500 to 5000
CCc1ccc(-c2ccc(C(=O)NCC(=O)N[C@@H]3CCCc4ccccc43)cc2)cc1 [Entry 76, 4′-ethyl-N-{2-oxo-2-[(1R)-1,2,3,4-tetrahydronaphthalen-1-ylamino]ethyl}biphenyl-4-carboxamide]	> 5000	> 5000	> 5000
CCc1ccc(-c2ccc(C(=O)NCC(=O)NCCc3ccccc3)cc2)cc1 [Entry 75, 4′-ethyl-N-{2-oxo-2-[(2-phenylethyl)amino]ethyl}biphenyl-4-carboxamide]	> 5000	> 5000	> 5000
O=C(CNC(=O)c1ccc(-c2cnco2)cc1)NC1CCCc2ccccc21 (stereo not drawn) [Entry 71, 4-(1,3-oxazol-5-yl)-N-[2-oxo-2-(1,2,3,4-tetrahydronaphthalen-1-ylamino)ethyl]benzamide]	50 to 500	< 50	50 to 500
O=C(CNC(=O)c1ccc(C2CCCCC2)cc1)NC1CCCc2ccccc21 (stereo not drawn) [Entry 50, 4-cyclohexyl-N-[2-oxo-2-(1,2,3,4-tetrahydronaphthalen-1-ylamino)ethyl]benzamide]	50 to 500	50 to 500	50 to 500
CCc1ccc(-c2ccc(C(=O)NC(C)C(=O)NC3CCc4ccccc4C3)cc2)cc1 (stereo not drawn) [Entry 5, 4′-ethyl-N-[1-methyl-2-oxo-2-(1,2,3,4-tetrahydronaphthalen-2-ylamino)ethyl]biphenyl-4-carboxamide]	< 50	< 50	50 to 500

More lines, now with the values ahead:

IC50 [1] [nM]	IC50 (JIK) [nM]	IC50 (TAO) [nM]	SMILES
50 to 500	50 to 500	50 to 500	O=C(CNC(=O)c1ccc(Oc2ccccc2)cc1)NC1CCCc2ccccc21 (stereo not drawn) [Entry 49, N-[2-oxo-2-(1,2,3,4-tetrahydronaphthalen-1-ylamino)ethyl]-4-(phenyloxy)benzamide]
> 5000	50 to 500	> 5000	O=C(CNC(=O)Nc1ccc(-c2ccccc2)cc1)NC1CCCc2ccccc21 (stereo not drawn) [Entry 73, N˜2˜-[(biphenyl-4-ylamino)carbonyl]-N-(1,2,3,4-tetrahydronaphthalen-1-yl)glycinamide]
< 50	< 50	< 50	COc1ccc2nc(NC(=O)COC(=O)CC(NC(=O)c3ccccc3)c3ccccc3)sc2c1 (stereo not drawn) [Entry 37, 2-{[6-(methyloxy)-1,3-benzothiazol-2-yl]amino}-2-oxoethyl 3-phenyl-3-[(phenylcarbonyl)amino]propanoate]
500 to 5000	50 to 500	> 5000	COc1ccc(/C=C/C(=O)N[C@@H](COCc2ccccc2)C(=O)NC(c2ccccc2)c2ccccc2)cc1OC [Entry 30, N˜2˜-{(2E)-3-[3,4-bis(methyloxy)phenyl]prop-2-enoyl}-N-(diphenylmethyl)-O-(phenylmethyl)serinamide]
500 to 5000	500 to 5000	> 5000	O=C(CNC(=O)c1ccc2ccccc2c1)NC1CCCc2ccccc21 (stereo not drawn) [Entry 44, N-[2-oxo-2-(1,2,3,4-tetrahydronaphthalen-1-ylamino)ethyl]naphthalene-2-carboxamide]
< 50	< 50	50 to 500	O=C(CNC(=O)c1ccc(OCc2ccccc2)cc1)NC1CCCc2ccccc21 (stereo not drawn) [Entry 51, N-[2-oxo-2-(1,2,3,4-tetrahydronaphthalen-1-ylamino)ethyl]-4-[(phenylmethyl)oxy]benzamide]
500 to 5000	50 to 500	500 to 5000	O=C(CC(NC(=O)c1ccccc1)c1ccccc1)NCC(=O)Nc1nccs1 (stereo not drawn) [Entry 92, N-(3-oxo-3-{[2-oxo-2-(1,3-thiazol-2-ylamino)ethyl]amino}-1-phenylpropyl)benzamide]
